{"source": "paper PMC8391922", "about": "“The Combined Effect of Branching and Elongation on the Bioactivity Profile of Phytocannabinoids. Part I: Thermo-TRPs” (Biomedicines, 2021)", "key": {"[1]": {"target": "T1, rat TRPV2 (Rattus norvegicus, UniProt Q9WUD2)", "T1 construct": "expressed in transfected cells; host or cells: HEK-293", "T1 sequence (Q9WUD2 1-761)": "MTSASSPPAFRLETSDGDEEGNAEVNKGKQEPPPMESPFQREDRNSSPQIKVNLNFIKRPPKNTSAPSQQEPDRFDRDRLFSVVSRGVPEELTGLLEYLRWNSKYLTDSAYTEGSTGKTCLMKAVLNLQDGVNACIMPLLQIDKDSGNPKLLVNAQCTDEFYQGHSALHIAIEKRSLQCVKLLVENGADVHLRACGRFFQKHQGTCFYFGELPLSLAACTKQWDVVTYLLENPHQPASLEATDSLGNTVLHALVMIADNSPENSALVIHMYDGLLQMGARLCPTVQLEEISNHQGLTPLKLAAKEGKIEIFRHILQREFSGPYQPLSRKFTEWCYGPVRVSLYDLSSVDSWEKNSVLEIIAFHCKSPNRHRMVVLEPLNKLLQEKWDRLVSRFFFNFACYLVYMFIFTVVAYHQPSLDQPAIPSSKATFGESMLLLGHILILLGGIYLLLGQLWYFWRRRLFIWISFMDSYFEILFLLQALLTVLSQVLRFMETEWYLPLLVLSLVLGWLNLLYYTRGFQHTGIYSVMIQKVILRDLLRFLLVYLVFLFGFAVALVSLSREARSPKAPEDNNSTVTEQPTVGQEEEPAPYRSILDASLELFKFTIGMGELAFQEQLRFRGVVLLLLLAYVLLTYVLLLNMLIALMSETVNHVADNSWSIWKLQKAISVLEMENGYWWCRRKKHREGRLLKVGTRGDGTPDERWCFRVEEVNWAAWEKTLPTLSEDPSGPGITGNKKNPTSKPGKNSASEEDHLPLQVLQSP", "assay": "TRPV2-mediated elevation of intracellular Ca2+ (Fluo-4) in transfected HEK-293 cells", "type": "cell-based", "description": "(§1) Assays of rat TRPA1, TRPV2, TRPV3, TRPV4, and TRPM8 or human TRPV1 mediated elevation of intracellular Ca ^2+ in transfected HEK-293 cells were performed with a continuous monitoring of [Ca ^2+]i during the experiments. […] Cell fluorescence before and after the addition of various concentrations of test compounds was measured, normalizing the effects against the response to ionomycin (IM, 4 μM). The values of the effect on [Ca^2+]i in HEK-293 cells not transfected were used as baseline and subtracted from the values obtained from transfected cells. For TRPA1, agonist efficacy was expressed as a percentage of the effect on [Ca ^2+]i observed with 100 μM allylisothiocyanate. […] In the TRPV3 assay, TRPV3-expressing HEK293 cells were first sensitized with the structurally unrelated agonist 2-aminoethoxydiphenyl borate (100 μM). Antagonist/desensitizing behavior is evaluated against the agonist of the TRP analyzed by adding the compounds directly in the quartz cuvette 5 min before stimulation of cells with the agonist. […] Dose-response curve fitting (sigmoidal dose-response variable slope) and parameter estimation were performed with Graph-Pad Prism8 (GraphPad Software Inc., San Diego, CA, USA). All determinations were performed at least in triplicate."}, "[2]": {"target": "T2, human TRPV1 (Homo sapiens, UniProt Q8NER1)", "T2 construct": "expressed in transfected cells; host or cells: HEK-293", "T2 sequence (Q8NER1 whole entry)": "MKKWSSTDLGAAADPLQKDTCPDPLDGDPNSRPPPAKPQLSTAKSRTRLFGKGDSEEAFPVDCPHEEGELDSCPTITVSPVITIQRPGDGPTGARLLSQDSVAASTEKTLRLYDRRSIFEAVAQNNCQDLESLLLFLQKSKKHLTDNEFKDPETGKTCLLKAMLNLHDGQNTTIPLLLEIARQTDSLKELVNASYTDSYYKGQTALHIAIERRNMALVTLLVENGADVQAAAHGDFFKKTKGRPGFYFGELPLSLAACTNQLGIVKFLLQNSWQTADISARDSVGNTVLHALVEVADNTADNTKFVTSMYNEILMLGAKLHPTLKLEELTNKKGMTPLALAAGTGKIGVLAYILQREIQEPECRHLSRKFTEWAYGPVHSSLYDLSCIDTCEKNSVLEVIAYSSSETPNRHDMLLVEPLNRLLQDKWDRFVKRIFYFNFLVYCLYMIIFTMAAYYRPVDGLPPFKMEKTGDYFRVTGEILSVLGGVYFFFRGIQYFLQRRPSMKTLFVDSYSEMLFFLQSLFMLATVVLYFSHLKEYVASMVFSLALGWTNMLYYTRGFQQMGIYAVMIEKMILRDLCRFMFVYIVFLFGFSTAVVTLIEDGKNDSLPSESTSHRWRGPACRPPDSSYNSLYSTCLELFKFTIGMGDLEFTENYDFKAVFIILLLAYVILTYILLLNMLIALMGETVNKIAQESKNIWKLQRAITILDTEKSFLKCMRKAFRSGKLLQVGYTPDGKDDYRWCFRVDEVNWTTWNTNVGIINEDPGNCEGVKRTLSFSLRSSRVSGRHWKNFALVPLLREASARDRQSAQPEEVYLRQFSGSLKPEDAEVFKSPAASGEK", "assay": "TRPV1-mediated elevation of intracellular Ca2+ (Fluo-4) in transfected HEK-293 cells", "type": "cell-based", "description": "as §1"}, "[3]": {"target": "T3, rat TRPA1 (Rattus norvegicus, UniProt Q6RI86)", "T3 construct": "expressed in transfected cells; host or cells: HEK-293", "T3 sequence (Q6RI86 whole entry)": "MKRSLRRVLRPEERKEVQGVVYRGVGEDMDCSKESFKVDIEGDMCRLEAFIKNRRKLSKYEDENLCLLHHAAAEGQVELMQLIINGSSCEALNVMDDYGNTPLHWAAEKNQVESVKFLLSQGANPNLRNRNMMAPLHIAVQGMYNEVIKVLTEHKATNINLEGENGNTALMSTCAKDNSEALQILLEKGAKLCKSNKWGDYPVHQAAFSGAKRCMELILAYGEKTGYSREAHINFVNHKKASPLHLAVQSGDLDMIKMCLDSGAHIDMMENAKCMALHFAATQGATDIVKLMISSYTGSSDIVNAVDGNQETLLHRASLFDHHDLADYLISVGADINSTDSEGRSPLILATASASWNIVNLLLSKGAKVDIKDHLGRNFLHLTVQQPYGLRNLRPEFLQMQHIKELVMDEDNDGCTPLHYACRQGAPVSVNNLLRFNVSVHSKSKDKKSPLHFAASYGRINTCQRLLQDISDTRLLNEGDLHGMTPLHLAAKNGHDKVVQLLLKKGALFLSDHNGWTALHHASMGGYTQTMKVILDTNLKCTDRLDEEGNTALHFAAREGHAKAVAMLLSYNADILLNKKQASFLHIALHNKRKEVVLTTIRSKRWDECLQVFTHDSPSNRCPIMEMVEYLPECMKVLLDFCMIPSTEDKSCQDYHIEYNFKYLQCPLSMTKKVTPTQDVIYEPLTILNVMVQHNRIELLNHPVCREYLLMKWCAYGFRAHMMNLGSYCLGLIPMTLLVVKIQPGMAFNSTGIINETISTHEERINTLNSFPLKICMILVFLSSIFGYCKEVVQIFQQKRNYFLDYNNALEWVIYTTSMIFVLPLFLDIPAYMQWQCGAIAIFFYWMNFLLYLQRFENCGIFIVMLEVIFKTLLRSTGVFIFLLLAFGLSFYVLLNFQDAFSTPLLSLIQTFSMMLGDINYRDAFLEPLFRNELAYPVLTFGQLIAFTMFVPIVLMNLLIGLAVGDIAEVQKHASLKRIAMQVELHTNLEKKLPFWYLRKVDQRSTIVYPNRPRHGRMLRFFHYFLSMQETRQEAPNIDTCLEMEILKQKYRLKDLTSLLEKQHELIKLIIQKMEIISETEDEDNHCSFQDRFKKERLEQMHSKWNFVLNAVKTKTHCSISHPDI", "assay": "TRPA1-mediated elevation of intracellular Ca2+ (Fluo-4) in transfected HEK-293 cells", "type": "cell-based", "description": "as §1"}, "[4]": {"target": "T4, rat TRPV4 (Rattus norvegicus, UniProt Q9ERZ8)", "T4 construct": "expressed in transfected cells; host or cells: HEK-293", "T4 sequence (Q9ERZ8 whole entry)": "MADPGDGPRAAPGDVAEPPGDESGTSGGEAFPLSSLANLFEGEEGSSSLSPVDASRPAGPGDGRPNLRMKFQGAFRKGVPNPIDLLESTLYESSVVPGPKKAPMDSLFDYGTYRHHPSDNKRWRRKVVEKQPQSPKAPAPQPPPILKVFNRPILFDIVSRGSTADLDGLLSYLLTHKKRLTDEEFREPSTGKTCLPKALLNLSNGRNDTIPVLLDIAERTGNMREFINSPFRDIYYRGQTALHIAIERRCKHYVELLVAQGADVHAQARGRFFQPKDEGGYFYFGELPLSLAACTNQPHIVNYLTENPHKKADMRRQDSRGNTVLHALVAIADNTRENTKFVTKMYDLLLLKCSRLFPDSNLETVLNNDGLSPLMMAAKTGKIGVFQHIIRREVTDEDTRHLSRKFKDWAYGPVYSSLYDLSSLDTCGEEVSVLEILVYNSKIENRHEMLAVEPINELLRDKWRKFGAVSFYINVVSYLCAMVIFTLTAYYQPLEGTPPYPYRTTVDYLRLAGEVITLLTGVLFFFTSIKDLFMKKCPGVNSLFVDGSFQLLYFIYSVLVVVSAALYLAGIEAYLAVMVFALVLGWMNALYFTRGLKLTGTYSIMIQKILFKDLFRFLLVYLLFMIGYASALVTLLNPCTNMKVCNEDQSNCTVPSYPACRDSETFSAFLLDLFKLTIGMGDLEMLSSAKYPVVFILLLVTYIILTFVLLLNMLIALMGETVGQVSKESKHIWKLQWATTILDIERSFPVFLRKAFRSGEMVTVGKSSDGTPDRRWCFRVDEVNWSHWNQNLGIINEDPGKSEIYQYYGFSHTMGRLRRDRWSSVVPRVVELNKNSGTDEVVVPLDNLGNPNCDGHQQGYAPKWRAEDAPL", "assay": "TRPV4-mediated elevation of intracellular Ca2+ (Fluo-4) in transfected HEK-293 cells", "type": "cell-based", "description": "as §1"}, "[5]": {"target": "T5, rat TRPM8 (Rattus norvegicus, UniProt Q8R455)", "T5 construct": "expressed in transfected cells; host or cells: HEK-293", "T5 sequence (Q8R455 whole entry)": "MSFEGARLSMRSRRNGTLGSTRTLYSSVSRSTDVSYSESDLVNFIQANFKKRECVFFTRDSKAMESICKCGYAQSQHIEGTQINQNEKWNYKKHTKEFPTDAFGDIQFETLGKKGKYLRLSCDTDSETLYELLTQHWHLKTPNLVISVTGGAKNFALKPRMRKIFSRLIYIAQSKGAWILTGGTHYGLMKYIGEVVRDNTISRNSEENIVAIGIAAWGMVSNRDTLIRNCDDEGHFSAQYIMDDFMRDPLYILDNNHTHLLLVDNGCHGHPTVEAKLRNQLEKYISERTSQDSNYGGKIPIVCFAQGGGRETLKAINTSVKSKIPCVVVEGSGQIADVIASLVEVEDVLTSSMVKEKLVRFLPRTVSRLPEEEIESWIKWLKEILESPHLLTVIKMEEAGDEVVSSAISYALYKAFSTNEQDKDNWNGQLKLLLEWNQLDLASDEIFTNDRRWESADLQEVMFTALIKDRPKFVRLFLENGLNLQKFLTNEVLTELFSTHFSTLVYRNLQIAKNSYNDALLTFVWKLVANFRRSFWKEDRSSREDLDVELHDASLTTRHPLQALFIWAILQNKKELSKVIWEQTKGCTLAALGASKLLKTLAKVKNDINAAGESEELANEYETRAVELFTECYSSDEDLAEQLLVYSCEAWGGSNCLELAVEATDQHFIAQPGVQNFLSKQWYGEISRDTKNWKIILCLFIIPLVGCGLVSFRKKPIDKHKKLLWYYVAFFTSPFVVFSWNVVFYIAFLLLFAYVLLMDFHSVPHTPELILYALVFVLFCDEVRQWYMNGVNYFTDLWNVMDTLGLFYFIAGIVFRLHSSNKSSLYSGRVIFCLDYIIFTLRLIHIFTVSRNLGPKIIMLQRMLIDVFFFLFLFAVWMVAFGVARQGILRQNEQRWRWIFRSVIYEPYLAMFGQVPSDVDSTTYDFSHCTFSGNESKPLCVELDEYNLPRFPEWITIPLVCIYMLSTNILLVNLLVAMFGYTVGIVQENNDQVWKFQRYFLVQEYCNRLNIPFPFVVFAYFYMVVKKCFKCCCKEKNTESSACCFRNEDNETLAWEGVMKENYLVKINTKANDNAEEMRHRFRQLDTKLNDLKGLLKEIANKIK", "assay": "TRPM8 antagonism of icilin-induced intracellular Ca2+ elevation (Fluo-4) in transfected HEK-293 cells", "type": "cell-based", "conditions": "IC50 TRPM8, antagonist; compound added 5 min before agonist icilin 0.25 μM", "description": "as §1"}, "[6]": {"target": "T3, rat TRPA1", "set-up": "method as in PMID 21175579", "conditions": "cited from earlier work; for TRPA1 Efficacy (%ITC 100 μM): percentage of the effect of 100 μM allylisothiocyanate; for IC50: against agonist AITC 100 μM"}, "[7]": {"target": "T4, rat TRPV4", "set-up": "method as in PMID 21175579, PMID 21726418"}, "[8]": {"target": "T1, rat TRPV2", "set-up": "method as in PMID 21175579, PMID 21726418", "conditions": "cited from earlier work; for TRPV2 Efficacy (% IM 4 μM): percentage of the response to ionomycin 4 μM"}, "[9]": {"target": "T6, rat TRPV3 (Rattus norvegicus, UniProt Q4QYD9)", "T6 construct": "expressed in transfected cells; host or cells: HEK-293", "T6 sequence (Q4QYD9 1-791)": "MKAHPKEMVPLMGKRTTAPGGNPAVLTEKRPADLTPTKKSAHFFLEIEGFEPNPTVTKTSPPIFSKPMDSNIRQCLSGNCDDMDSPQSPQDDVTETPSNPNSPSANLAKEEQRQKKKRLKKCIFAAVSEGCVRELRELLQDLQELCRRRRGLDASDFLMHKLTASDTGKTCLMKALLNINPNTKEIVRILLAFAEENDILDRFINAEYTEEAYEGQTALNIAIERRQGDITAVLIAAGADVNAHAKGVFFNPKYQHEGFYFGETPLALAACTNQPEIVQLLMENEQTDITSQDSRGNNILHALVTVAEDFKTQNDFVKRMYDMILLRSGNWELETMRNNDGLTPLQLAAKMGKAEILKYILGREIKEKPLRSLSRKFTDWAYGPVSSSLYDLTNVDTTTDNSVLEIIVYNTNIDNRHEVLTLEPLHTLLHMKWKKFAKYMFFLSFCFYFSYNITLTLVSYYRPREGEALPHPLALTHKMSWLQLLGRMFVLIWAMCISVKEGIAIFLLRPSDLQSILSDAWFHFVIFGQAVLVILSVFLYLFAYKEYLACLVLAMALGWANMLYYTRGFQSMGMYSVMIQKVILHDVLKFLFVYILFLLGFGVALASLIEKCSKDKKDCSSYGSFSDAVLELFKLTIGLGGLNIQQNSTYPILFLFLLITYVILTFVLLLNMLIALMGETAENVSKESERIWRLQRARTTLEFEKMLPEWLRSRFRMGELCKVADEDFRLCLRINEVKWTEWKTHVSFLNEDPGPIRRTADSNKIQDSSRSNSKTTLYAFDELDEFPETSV", "set-up": "method as in PMID 21175579, PMID 21726418", "conditions": "cited from earlier work; for TRPV3 Efficacy (% IM 4 μM): percentage of the response to ionomycin 4 μM; for IC50: read-out: IC50 TRPV3; for EC50: read-out: TRPV3 Potency EC50, half-maximal increase in [Ca2+]i"}, "[10]": {"target": "T2, human TRPV1", "set-up": "method as in PMID 21175579"}, "[11]": {"target": "T5, rat TRPM8", "set-up": "method as in PMID 21175579", "conditions": "against agonist icilin 0.25 μM; read-out: IC50 TRPM8; cited from earlier work"}, "[12]": {"conditions": "percentage of the response to ionomycin 4 μM, HEK-293"}, "[13]": {"conditions": "percentage of the response to ionomycin 4 μM; cited from earlier work"}}, "note": "Several values for one entry are separate records, joined by “and”; a condition that tells them apart may be missing. Identical values can stand only once. Like-named read-outs stand apart in the source and are kept apart here."}
{"smiles": "CCCCCCC(C)(C)c1cc(O)c2c(c1)OC(C)(C)[C@@H]1CC=C(C)C[C@@H]21", "note": "[6b, Depentyl-α,α-dimethylheptyl-Δ^8-tetrahydrocannabinol]", "values": [{"measurement": "EC50", "setting": "[1]", "result": "0.25 ± 0.03", "unit": "µM"}, {"measurement": "IC50", "setting": "[1]; IC50 TRPV2, antagonist/desensitizing, compound added 5 min before agonist CBD 2 μM", "result": "45.8 µM and > 50 µM"}, {"measurement": "TRPV2 Efficacy (% IM 4 μM)", "setting": "[1]; [12]", "result": "< 10% and 10.5 ± 0.02%"}, {"measurement": "EC50", "setting": "[2]", "result": "> 100", "unit": "µM"}, {"measurement": "IC50", "setting": "[2]", "result": "> 100", "unit": "µM"}, {"measurement": "TRPV1 Efficacy (% IM 4 μM)", "setting": "[2]; [12]", "result": 15.3, "unit": "%"}, {"measurement": "EC50", "setting": "[3]", "result": "4.8 ± 1.1", "unit": "µM"}, {"measurement": "IC50", "setting": "[3]", "result": "6 ± 0.9", "unit": "µM"}, {"measurement": "TRPA1 Efficacy (%ITC 100 μM)", "setting": "[3]; percentage of the effect of 100 μM allylisothiocyanate on [Ca2+]i, HEK-293", "result": "124.2 ± 4.0", "unit": "%"}, {"measurement": "EC50", "setting": "[4]", "result": "16.1 ± 21.6", "unit": "µM"}, {"measurement": "IC50", "setting": "[4]", "result": "> 100", "unit": "µM"}, {"measurement": "TRPV4 Efficacy (% IM 4 μM)", "setting": "[4]; [12]", "result": "<10 <10% and 12.1 ± 0.2%"}, {"measurement": "IC50", "setting": "[5]", "result": "39.9 ± 6.9", "unit": "µM"}]}
{"smiles": "C=C(C)[C@@H]1CCC(C)=C[C@H]1c1c(O)cc(CCCCC)cc1O", "note": "[1a, cannabidiol]", "values": [{"measurement": "TRPA1 Efficacy (%ITC 100 μM)", "setting": "[6]", "result": "115.9 ± 4.6", "unit": "%"}, {"measurement": "IC50", "setting": "[6]; read-out: IC50 TRPA1", "result": 0.16, "unit": "µM"}, {"measurement": "TRPV4 Efficacy (% IM 4 μM)", "setting": "[7]; [13]", "result": "16.7 ± 1.0", "unit": "%"}, {"measurement": "IC50", "setting": "[7]; read-out: IC50 TRPV4; against agonist 4αPDD 1 μM; cited from earlier work", "result": 1.1, "unit": "µM"}, {"measurement": "EC50", "setting": "[7]; read-out: TRPV4 Potency EC50; half-maximal increase in [Ca2+]i; cited from earlier work", "result": 0.8, "unit": "µM"}, {"measurement": "TRPV2 Efficacy (% IM 4 μM)", "setting": "[8]", "result": "40.5 ± 1.6", "unit": "%"}, {"measurement": "IC50", "setting": "[8]; read-out: IC50 TRPV2, against agonist LPC 3 μM", "result": 4.5, "unit": "µM"}, {"measurement": "TRPV3 Efficacy (% IM 4 μM)", "setting": "[9]", "result": "50.1 ± 4.8", "unit": "%"}, {"measurement": "IC50", "setting": "[9]; against agonist carvacrol 1 mM", "result": 0.9, "unit": "µM"}, {"measurement": "EC50", "setting": "[9]", "result": 3.7, "unit": "µM"}, {"measurement": "IC50 TRPV1", "setting": "[10]; against agonist capsaicin 0.1 μM; cited from earlier work", "result": "sub/low micromolar range"}, {"measurement": "TRPV1 Efficacy (% IM 4 μM)", "setting": "[10]; [13]", "result": "44.7 ± 0.02", "unit": "%"}, {"measurement": "IC50", "setting": "[10]; read-out: IC50 TRPV1; against agonist capsaicin 0.1 μM; cited from earlier work", "result": 0.6, "unit": "µM"}]}
{"smiles": "CCCCCc1cc(O)c2c(c1)OC(C)(CCC=C(C)C)C=C2", "note": "(stereo not drawn) [8a, cannabichromene]", "values": [{"measurement": "IC50", "setting": "[6]; read-out: IC50 TRPA1 (converted)", "result": 0.37, "unit": "µM"}, {"measurement": "TRPA1 Efficacy (%ITC 100 μM)", "setting": "[6]", "result": "119.4 ± 3.1", "unit": "%"}, {"measurement": "IC50", "setting": "[11]", "result": 40.7, "unit": "µM"}, {"measurement": "IC50", "setting": "[7]; against agonist GSK1016790A 10 nM; read-out: IC50 TRPV4; cited from earlier work", "result": 9.9, "unit": "µM"}, {"measurement": "EC50", "setting": "[7]; half-maximal increase in [Ca2+]i; read-out: TRPV4 Potency EC50; cited from earlier work", "result": 0.6, "unit": "µM"}, {"measurement": "TRPV4 Efficacy (% IM 4 μM)", "setting": "[7]; [13]", "result": "22.9 ± 1.2", "unit": "%"}, {"measurement": "IC50", "setting": "[8]; against agonist CBD 2 μM, read-out: IC50 TRPV2 (converted)", "result": 6.5, "unit": "µM"}, {"measurement": "TRPV2 Efficacy (% IM 4 μM)", "setting": "[8]", "result": "< 10", "unit": "%"}, {"measurement": "TRPV3 Efficacy (% IM 4 μM)", "setting": "[9]", "result": "20.2 ± 0.4", "unit": "%"}, {"measurement": "IC50", "setting": "[9]; against agonist thymol 100 μM", "result": "> 100", "unit": "µM"}, {"measurement": "EC50", "setting": "[9]", "result": 1.9, "unit": "µM"}, {"measurement": "IC50", "setting": "[10]; against agonist capsaicin 0.1 μM; read-out: IC50 TRPV1; cited from earlier work", "result": "> 50", "unit": "µM"}, {"measurement": "TRPV1 Efficacy (% IM 4 μM)", "setting": "[10]; [13]", "result": "< 10", "unit": "%"}]}
